Some results are limits rather than exact numbers.

The subject of this test is HEK293T cells carrying the ATF4 luciferase reporter. The experiment in a line: ATF4-Luc assay (in vitro model of VWMD). The format is cell-based. The conditions noted are these: Homo sapiens, HEK-293T, 1 μg/mL tunicamycin, 7 hours, One Glo luminescence. The procedure:
In order to test exemplary compounds of the invention in a cellular context, a stable VWMD cell line was first constructed. The ATF4 reporter was prepared by fusing the human full-length ATF4 5′-UTR (NCBI Accession No. BC022088.2) in front of the firefly luciferase (FLuc) coding sequence lacking the initiator methionine as described in Sidrauski et al (eLife 2013). The construct was used to produce recombinant retroviruses using standard methods and the resulting viral supernatant was used to transduce HEK293T cells, which were then subsequently selected with puromycin to generate a stable cell line.
HEK293T cells carrying the ATF4 luciferase reporter were plated on polylysine coated 384-well plates (Greiner Bio-one) at 30,000 cells per well. Cells were treated the next day with 1 μg/mL tunicamycin and 200 nM of a compound of Formula (I) for 7 hours. Luminescence was measured using One Glo (Promega) as specified by the manufacturer. Cells were maintained in DMEM with L-glutamine supplemented with 10% heat-inactivated FBS (Gibco) and Antibiotic-Antimycotic solution (Gibco).
Table 2 below summarizes the EC50 data obtained using the ATF4-Luc assay for exemplary compounds of the invention.
Broadly, the EC50 is the concentration that produces a half-maximal response. As to `O=C(COc1ccc(Cl)c(F)c1)NC12CC(c3nnc(Oc4ccc(Cl)cc4)o3)(C1)C2` [Compound 128, 2-(4-chloro-3-fluorophenoxy)-N-{3-[5-(4-chlorophenoxy)-1,3,4-oxadiazol-2-yl]bicyclo[1.1.1]pentan-1-yl}acetamide], the EC50 was less than 50 nM. Consider `N#Cc1cccc(Oc2nnc(C34CC(NC(=O)COc5ccc(Cl)c(F)c5)(C3)C4)o2)c1` [Compound 129, 2-(4-chloro-3-fluorophenoxy)-N-{3-[5-(3-cyanophenoxy)-1,3,4-oxadiazol-2-yl]bicyclo[1.1.1]pentan-1-yl}acetamide], for which the EC50 is 50 to 250 nM. The value for `Cc1ccc(Oc2nnc(C34CC(NC(=O)COc5ccc(Cl)c(F)c5)(C3)C4)o2)cc1C` [Compound 130, 2-(4-chloro-3-fluorophenoxy)-N-{3-[5-(3,4-dimethylphenoxy)-1,3,4-oxadiazol-2-yl]bicyclo[1.1.1]pentan-1-yl}acetamide] was 50 to 250 nM; that for `O=C(COc1ccc(Cl)c(F)c1)NC12CC(c3nnc(Oc4ccc(C(F)(F)F)cc4)o3)(C1)C2` [Compound 131, 2-(4-chloro-3-fluorophenoxy)-N-(3-{5-[4-(trifluoromethyl)phenoxy]-1,3,4-oxadiazol-2-yl}bicyclo[1.1.1]pentan-1-yl)acetamide] was less than 50 nM; that for `O=C(COc1ccc(Cl)c(F)c1)NC12CC(c3nnc(COc4ccc(Cl)cc4)[nH]3)(C1)C2` [Compound 132, 2-(4-chloro-3-fluorophenoxy)-N-(3-{5-[(4-chlorophenoxy)methyl]-4H-1,2,4-triazol-3-yl}bicyclo[1.1.1]pentan-1-yl)acetamide] was less than 50 nM.

Consider `O=C(COc1ccc2c(c1)OC(F)(F)O2)NC12CC(c3nnc(COc4ccc(Cl)c(F)c4)o3)(C1)C2` [Compound 133, N-(3-{5-[(4-chloro-3-fluorophenoxy)methyl]-1,3,4-oxadiazol-2-yl}bicyclo-[1.1.1]pentan-1-yl)-2-[(2,2-difluoro-2H-1,3-benzodioxol-5-yl)oxy]acetamide], for which the EC50 is less than 50 nM. The value for `Cc1ccccc1Oc1nnc(C23CC(NC(=O)COc4ccc(Cl)c(F)c4)(C2)C3)o1` [Compound 134, 2-(4-chloro-3-fluorophenoxy)-N-{3-[5-(2-methylphenoxy)-1,3,4-oxadiazol-2-yl]bicyclo[1.1.1]pentan-1-yl}acetamide] was 250 to 1000 nM; that for `Cc1cccc(Oc2nnc(C34CC(NC(=O)COc5ccc(Cl)c(F)c5)(C3)C4)o2)c1` [Compound 135, 2-(4-chloro-3-fluorophenoxy)-N-{3-[5-(3-methylphenoxy)-1,3,4-oxadiazol-2-yl]bicyclo[1.1.1]pentan-1-yl}acetamide] was 50 to 250 nM; that for `COc1cccc(Oc2nnc(C34CC(NC(=O)COc5ccc(Cl)c(F)c5)(C3)C4)o2)c1` [Compound 136, 2-(4-chloro-3-fluorophenoxy)-N-{3-[5-(3-methoxyphenoxy)-1,3,4-oxadiazol-2-yl]bicyclo[1.1.1]pentan-1-yl}acetamide] was 50 to 250 nM.

For the compound `O=C(COc1ccc(Cl)c(F)c1)NC12CC(c3nnc(Oc4ccccc4F)o3)(C1)C2` [Compound 137, 2-(4-chloro-3-fluorophenoxy)-N-{3-[5-(2-fluorophenoxy)-1,3,4-oxadiazol-2-yl]bicyclo[1.1.1]pentan-1-yl}acetamide], the EC50 lay in the range of 250 to 1000 nM. Regarding `O=C(COc1ccc(Cl)c(F)c1)NC12CC(c3nnc(Oc4cccc(F)c4)o3)(C1)C2` [Compound 138, 2-(4-chloro-3-fluorophenoxy)-N-{3-[5-(3-fluorophenoxy)-1,3,4-oxadiazol-2-yl]bicyclo[1.1.1]pentan-1-yl}acetamide], the EC50 lay within 50 to 250 nM.

On to `O=C(COc1ccc(Cl)c(F)c1)NC12CC(c3nnc(Oc4cccc(C(F)(F)F)c4)o3)(C1)C2` [Compound 139, 2-(4-chloro-3-fluorophenoxy)-N-(3-{5-[3-(trifluoromethyl)phenoxy]-1,3,4-oxadiazol-2-yl}bicyclo[1.1.1]pentan-1-yl)acetamide], for which the EC50 is less than 50 nM.

With `O=C(COc1ccc(Cl)c(F)c1)NC12CC(c3nnc(COc4cncc(F)c4)o3)(C1)C2` [Compound 140, 2-(4-chloro-3-fluorophenoxy)-N-[3-(5-{[(5-fluoropyridin-3-yl)oxy]methyl}-1,3,4-oxadiazol-2-yl)bicyclo[1.1.1]pentan-1-yl]acetamide], the EC50 was 50 to 250 nM. For `O=C(COc1ccc(Cl)c(F)c1)NC12CC(c3nnc(COc4ccc(C(F)(F)F)nc4)o3)(C1)C2` [Compound 141, 2-(4-chloro-3-fluorophenoxy)-N-{3-[5-({[6-(trifluoromethyl)pyridin-3-yl]oxy}methyl)-1,3,4-oxadiazol-2-yl]bicyclo[1.1.1]pentan-1-yl}acetamide] the value was 50 to 250 nM. For `COc1ccc(OCc2nnc(C34CC(NC(=O)COc5ccc(Cl)c(F)c5)(C3)C4)o2)cn1` [Compound 142, 2-(4-chloro-3-fluorophenoxy)-N-[3-(5-{[(6-methoxypyridin-3-yl)oxy]methyl}-1,3,4-oxadiazol-2-yl)bicyclo[1.1.1]pentan-1-yl]acetamide] the value was less than 50 nM; for `Cc1cncc(OCc2nnc(C34CC(NC(=O)COc5ccc(Cl)c(F)c5)(C3)C4)o2)c1` [Compound 143, 2-(4-chloro-3-fluorophenoxy)-N-[3-(5-{[(5-methylpyridin-3-yl)oxy]methyl}-1,3,4-oxadiazol-2-yl)bicyclo[1.1.1]pentan-1-yl]acetamide], 250 to 1000 nM.

Take `N#Cc1cncc(OCc2nnc(C34CC(NC(=O)COc5ccc(Cl)c(F)c5)(C3)C4)o2)c1` [Compound 144, 2-(4-chloro-3-fluorophenoxy)-N-[3-(5-{[(5-cyanopyridin-3-yl)oxy]methyl}-1,3,4-oxadiazol-2-yl)bicyclo[1.1.1]pentan-1-yl]acetamide]: the concentration giving a half-maximal response (EC50) was more than 2000 nM. For `Cc1ncc(OCc2nnc(C34CC(NC(=O)COc5ccc(Cl)c(F)c5)(C3)C4)o2)cc1Cl` [Compound 145, 2-(4-chloro-3-fluorophenoxy)-N-[3-(5-{[(5-chloro-6-methylpyridin-3-yl)oxy]methyl}-1,3,4-oxadiazol-2-yl)bicyclo[1.1.1]pentan-1-yl]acetamide] the value was 50 to 250 nM.

For the compound `Cc1ccc(OCc2nnc(C34CC(NC(=O)COc5ccc(Cl)c(F)c5)(C3)C4)o2)cn1` [Compound 146, 2-(4-chloro-3-fluorophenoxy)-N-[3-(5-{[(6-methylpyridin-3-yl)oxy]methyl}-1,3,4-oxadiazol-2-yl)bicyclo[1.1.1]pentan-1-yl]acetamide], the EC50 fell in the range of 250 to 1000 nM. For `CC(C)Oc1ccc(OCc2nnc(C34CC(NC(=O)COc5ccc(Cl)c(F)c5)(C3)C4)o2)cn1` [Compound 147, 2-(4-chloro-3-fluorophenoxy)-N-(3-{5-[({6-[(propan-2-yl)oxy]pyridin-3-yl}oxy)methyl]-1,3,4-oxadiazol-2-yl}bicyclo[1.1.1]pentan-1-yl)acetamide] the value was 1000 to 2000 nM. Regarding `O=C(COc1ccc(Cl)c(F)c1)NC12CC(c3nnc(COc4cncc(Cl)c4)o3)(C1)C2` [Compound 148, 2-(4-chloro-3-fluorophenoxy)-N-[3-(5-{[(5-chloropyridin-3-yl)oxy]methyl}-1,3,4-oxadiazol-2-yl)bicyclo[1.1.1]pentan-1-yl]acetamide], the EC50 was 50 to 250 nM. Turning to `O=C(COc1ccc(Cl)c(F)c1)NC12CC(c3nnc(COc4cnc5cc[nH]c5c4)o3)(C1)C2` [Compound 149, 2-(4-chloro-3-fluorophenoxy)-N-[3-(5-{[(1H-pyrrolo[3,2-b]pyridin-6-yl)oxy]methyl}-1,3,4-oxadiazol-2-yl)bicyclo[1.1.1]pentan-1-yl]acetamide], the EC50 lay within 1000 to 2000 nM. The value for `O=C(COc1ccc(Cl)c(F)c1)NC12CC(c3nnc(COc4ccc(C5CC5)nc4)o3)(C1)C2` [Compound 150, 2-(4-chloro-3-fluorophenoxy)-N-[3-(5-{[(6-cyclopropylpyridin-3-yl)oxy]methyl}-1,3,4-oxadiazol-2-yl)bicyclo[1.1.1]pentan-1-yl]acetamide] was 1000 to 2000 nM; that for `COc1ccc(OCc2nnc(C34CC(NC(=O)COc5ccc(Cl)c(F)c5)(C3)C4)o2)c(C)n1` [Compound 151, 2-(4-chloro-3-fluorophenoxy)-N-[3-(5-{[(6-methoxy-2-methylpyridin-3-yl)oxy]methyl}-1,3,4-oxadiazol-2-yl)bicyclo[1.1.1]pentan-1-yl]acetamide] was 1000 to 2000 nM; that for `O=C(COc1ccc(Cl)c(F)c1)NC12CC(c3nnc(COc4cnc5ccoc5c4)o3)(C1)C2` [Compound 152, 2-(4-chloro-3-fluorophenoxy)-N-[3-(5-{[(furo[3,2-b]pyridin-6-yl)oxy]methyl}-1,3,4-oxadiazol-2-yl)bicyclo[1.1.1]pentan-1-yl]acetamide] was 1000 to 2000 nM. The value for `CCc1nc(C)ccc1OCc1nnc(C23CC(NC(=O)COc4ccc(Cl)c(F)c4)(C2)C3)o1` [Compound 153, 2-(4-chloro-3-fluorophenoxy)-N-[3-(5-{[(2-ethyl-6-methylpyridin-3-yl)oxy]methyl}-1,3,4-oxadiazol-2-yl)bicyclo[1.1.1]pentan-1-yl]acetamide] was more than 2000 nM; that for `CC(C)c1ccc(OCc2nnc(C34CC(NC(=O)COc5ccc(Cl)c(F)c5)(C3)C4)o2)cn1` [Compound 154, 2-(4-chloro-3-fluorophenoxy)-N-{3-[5-({[6-(propan-2-yl)pyridin-3-yl]oxy}methyl)-1,3,4-oxadiazol-2-yl]bicyclo[1.1.1]pentan-1-yl}acetamide] was more than 2000 nM.

Source of the values: US10864196B2, “Modulators of the integrated stress pathway” (Calico Life Sciences LLC, priority 2016, dated 2020).
